The target in test [1] is T1, KDM3B (JMJD1B) (Homo sapiens, UniProt Q7LBC6).
T1 construct: 842-1761; host or cells: Bac (baculovirus system)
T1 sequence (Q7LBC6 842-1761): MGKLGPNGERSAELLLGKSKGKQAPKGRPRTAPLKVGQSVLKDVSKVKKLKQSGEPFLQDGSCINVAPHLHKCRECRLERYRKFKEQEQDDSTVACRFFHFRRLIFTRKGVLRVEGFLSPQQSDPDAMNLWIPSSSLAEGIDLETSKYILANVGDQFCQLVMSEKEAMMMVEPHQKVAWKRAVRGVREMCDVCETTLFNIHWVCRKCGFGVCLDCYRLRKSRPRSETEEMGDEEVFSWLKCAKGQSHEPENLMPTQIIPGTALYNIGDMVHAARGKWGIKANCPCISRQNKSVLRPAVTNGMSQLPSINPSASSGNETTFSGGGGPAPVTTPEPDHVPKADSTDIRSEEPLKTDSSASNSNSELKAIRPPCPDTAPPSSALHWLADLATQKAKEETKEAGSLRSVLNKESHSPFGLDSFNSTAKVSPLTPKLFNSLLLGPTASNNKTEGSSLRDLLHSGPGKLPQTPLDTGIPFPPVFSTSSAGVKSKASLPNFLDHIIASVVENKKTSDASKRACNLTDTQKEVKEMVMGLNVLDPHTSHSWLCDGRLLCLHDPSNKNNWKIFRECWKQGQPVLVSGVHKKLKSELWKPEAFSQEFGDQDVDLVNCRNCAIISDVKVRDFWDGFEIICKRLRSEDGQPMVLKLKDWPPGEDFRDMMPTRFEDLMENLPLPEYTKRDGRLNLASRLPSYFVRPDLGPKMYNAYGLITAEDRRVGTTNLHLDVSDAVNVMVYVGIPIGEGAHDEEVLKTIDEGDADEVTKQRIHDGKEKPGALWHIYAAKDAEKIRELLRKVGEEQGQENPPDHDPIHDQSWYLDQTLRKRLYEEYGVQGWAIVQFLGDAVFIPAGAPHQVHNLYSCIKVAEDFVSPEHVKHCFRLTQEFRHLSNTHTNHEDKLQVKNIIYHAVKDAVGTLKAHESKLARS
Briefly: Histone lysine demethylase AlphaLISA assay, KDM3B. The test is classed as biochemical. As to conditions: read-out: KDM3B HDME Inhibition IC50. As to the method:
Assays are performed analogously to the protocol described by PerkinElmer (Roy et al. PerkinElmer Technical Note: AlphaLISA #12, April 2011)
Enzymes are dissolved in enzyme buffer and incubated for 10 min before being added to 3% DMSO solutions of compounds in enzyme buffer. Incubated for another 10 minutes, before substrate solution is added and the reaction mixture is incubated at room temperature. 10 μL acceptor beads, suspended in Epigenetic Buffer (Perkin Elmer AL008) from stock, are added and the suspension is incubated in the dark at room temperature, before a suspension of streptavidin donor beads (Perkin Elmer 6760002) in Epigenetic Buffer is added. After incubation at room temperature in the dark the plates are read. […]
BK9M2: Biotin-ARTKQTAR(KMe2)STGGKAPRKQ-NH2 (AnaSpec 64359) […]
Substrate Solution: Substrate, 25 μM L-Asc, and 10 μM α-KG in Buffer A.

Test [2] concerns the target T2, KDM5B (PLU-1) (Homo sapiens, UniProt Q9UGL1).
T2 sequence (Q9UGL1 1-809): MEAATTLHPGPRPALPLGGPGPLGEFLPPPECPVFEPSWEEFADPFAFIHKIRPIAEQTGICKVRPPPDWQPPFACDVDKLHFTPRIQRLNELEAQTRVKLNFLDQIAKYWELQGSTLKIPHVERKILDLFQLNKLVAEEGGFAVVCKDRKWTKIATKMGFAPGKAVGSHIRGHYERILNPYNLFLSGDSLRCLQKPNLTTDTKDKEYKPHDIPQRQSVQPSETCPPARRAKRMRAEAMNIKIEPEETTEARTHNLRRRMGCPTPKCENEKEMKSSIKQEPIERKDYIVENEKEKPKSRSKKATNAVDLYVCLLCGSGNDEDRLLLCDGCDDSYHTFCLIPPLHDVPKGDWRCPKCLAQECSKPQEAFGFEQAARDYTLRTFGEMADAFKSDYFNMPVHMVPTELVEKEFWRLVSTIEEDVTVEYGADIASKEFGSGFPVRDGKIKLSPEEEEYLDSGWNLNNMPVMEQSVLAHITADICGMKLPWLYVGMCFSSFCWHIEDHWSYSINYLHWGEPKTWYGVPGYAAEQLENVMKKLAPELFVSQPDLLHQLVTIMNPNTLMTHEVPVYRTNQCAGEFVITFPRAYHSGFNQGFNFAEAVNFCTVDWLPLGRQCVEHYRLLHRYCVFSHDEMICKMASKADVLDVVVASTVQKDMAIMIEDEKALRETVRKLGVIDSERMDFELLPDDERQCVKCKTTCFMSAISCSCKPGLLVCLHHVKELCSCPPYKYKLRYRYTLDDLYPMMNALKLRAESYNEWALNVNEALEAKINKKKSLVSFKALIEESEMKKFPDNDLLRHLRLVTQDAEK
As to the kind of experiment: Histone lysine demethylase AlphaLISA assay, KDM5B. It is filed as biochemical. As to conditions: read-out: KDM5B HDME Inhibition IC50. The method in brief:
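Enzyme 10 min pre-incubation; + compound (3% DMSO soln) 10 min; + biotin-H3 methyl-Lys peptide, 25 μM L-Asc, 10 μM α-KG, RT. Read: AlphaLISA acceptor beads, then streptavidin donor beads, RT, dark.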
In general terms: Alpha assays give light when donor and acceptor beads are brought close together.

The test system of test [3] is H3K4me3 mark. As to the kind of experiment: Histone lysine demethylase immunofluorescence assay, non-transfected U2OS cells. As to conditions: Homo sapiens, staining of the H3K4me3 mark, 20 hours incubation with compound. It is filed as cell-based. As to the method:
U2OS cells were harvested and seeded into multi well plates into media containing compound. The media used was DMEM containing 5% FBS and pen/strep. 20 hours after incubation of cells with compounds, the cells were washed once in PBS, harvested by fixation with formaldehyde 4% aqueous solution, and washed in PBS. Subsequently, the cells were permeabilized in PBS with 0.2% Triton X-100. Blocking was performed in PBS with 0.2% Triton X-100 and 5% FBS. The cells were incubated with αH3K4me3 primary antibody (Cell Signaling, #9751S) in blocking solution over night at 4° C. After incubation with primary antibody, the cells were washed with PBS, incubated with secondary antibody (Alexa fluor 594 goat anti rabbit IgG, Invitrogen, A11012) and Hoechst, (Sigma, 33342) in blocking solution, and washed again with PBS. Finally, PBS was added and high throughput imaging and analysis were performed by an IN Cell Analyzer 1000 (GE Healthcare). The IC50 values were based on an average measure of the staining of the H3K4me3 mark in cells.

In test [4] the test system is MCF7 cells. As to the kind of experiment: Cell proliferation assay MCF7. It is filed as cell-based. As to conditions: MCF7 human breast cancer cells; 120 hours; ATPlite 1 Step. The method in brief:
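Cells grown 24 h in DMEM GlutaMAX/10% FBS, then exposed to compounds in duplicate (≤0.5% DMSO) for 120 h. Viability read as ATP luminescence (ATPlite 1 Step). Seeding set to reach ~90% confluence at harvest.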
On the technique in general: In ATP-based viability assays light output follows the ATP content of the culture.

For orientation: IC50 means the concentration at which inhibition is half-maximal. One may read the EC50 as the midpoint of the concentration-response curve. Higher therefore signals weaker potency. With `CCN(CC)C(=O)CNCc1cc(/C=N/CCC2CCCCC2)ccn1` [Compound 57, 2-[({4-[[(2-cyclohexylethyl)imino]-methyl]pyridin-2-yl}methyl)amino]-N,N-diethylacetamide], the IC50 is greater than 2500 nM in test [1], less than 250 nM in test [2] and 250 to 2500 nM in test [3]. This compound also yielded an EC50 in test [4] greater than 2500 nM.
Consider `CN(C)CCCNCc1cc(CN)ccn1` [Compound 3, [2-({[3-(dimethylamino)propyl]-amino}methyl)pyridin-4-yl]methanamine], for which the figures for the half-maximal inhibitory concentration (IC50) in test [1], in test [2] and in test [3] were greater than 2500 nM, 250 to 2500 nM and less than 250 nM, respectively. Also, the EC50 in test [4] is less than 250 nM.
Turning to `CCN(CCN(C)C)C(=O)CNCc1cc(C=O)ccn1` [Compound 101], the concentration for half-maximal inhibition (IC50) in test [1] was greater than 2500 nM; in test [2], less than 250 nM; in test [3] it was less than 250 nM. In addition, the half-maximal effective concentration (EC50) in test [4] is less than 250 nM.
As for `CON=Cc1ccnc(CNCCCN(C)C)c1` [Compound 64, [3-(dimethylamino)-propyl]({4-[(methoxyimino)-methyl]pyridin-2-yl}methyl)amine], the IC50 in test [1] is greater than 2500 nM; in test [2], less than 250 nM; in test [3], 250 to 2500 nM. Moreover, the EC50 in test [4] was greater than 2500 nM.
Consider `CN(C)CC1CCC(CNCc2cc(C=O)ccn2)CC1` (centres unmarked) [Compound 97, 2-{[({4-[(dimethylamino)-methyl]cyclohexyl}-methyl)amino]-methyl}pyridine-4-carbaldehyde], for which the IC50 in test [1] is greater than 2500 nM; in test [2] it was 250 to 2500 nM; in test [3] it was less than 250 nM. In addition, the 50% effective concentration (EC50) in test [4] was 250 to 2500 nM.
Turning to `CCN(CCN(C)C)C(=O)CNCc1cc(C2OCC(Cc3ccccc3)CN2C(=O)C(F)(F)F)ccn1` (centres unmarked) [Compound 90, 2-[({4-[5-benzyl-3-(trifluoroacetyl)-1,3-oxazinan-2-yl]pyridin-2-yl}methyl)amino]-N-[2-(dimethylamino)-ethyl]-N-ethylacetamide], the IC50 in test [2] and in test [3] was less than 250 nM each time. Further, the EC50 in test [4] was less than 250 nM.
For `CCCCCCCC/N=C/c1ccnc(CNCC(=O)N(CC)CC)c1` [Compound 58, N,N-diethyl-2-[({4-[(octylimino)methyl]-pyridin-2-yl}methyl)amino]-acetamide], the IC50 in test [1] was greater than 2500 nM; in test [2] it was less than 250 nM; in test [3] it was greater than 2500 nM. This compound returned an EC50 in test [4] greater than 2500 nM.
As for `CN1CCC(CNCc2cc(C=O)ccn2)CC1` [Compound 100, 2-({[(1-methyl-piperidin-4-yl)methyl]amino}-methyl)pyridine-4-carbaldehyde], the IC50 is greater than 2500 nM in test [1], less than 250 nM in test [2] and less than 250 nM in test [3]. In addition, the EC50 in test [4] is less than 250 nM.
On to `CN(C)CCCNCc1cc(/C=N/CCN(C)C)ccn1` [Compound 38, ({4-[{[2-(dimethylamino)ethyl]-imino}methyl]pyridin-2-yl}methyl)[3-(dimethylamino)-propyl]amine], for which the IC50 in test [1] was greater than 2500 nM; in test [2], less than 250 nM; in test [3], less than 250 nM. Besides, the EC50 in test [4] is less than 250 nM.
Regarding `CNC(C#N)c1ccnc(CNCCCN(C)C)c1` (centres unmarked) [Compound 24, 2-[2-({[3-(dimethylamino)propyl]-amino}methyl)pyridin-4-yl]-2-(methylamino)-acetonitrile], the values for the IC50 in test [1], in test [2] and in test [3] were greater than 2500 nM, less than 250 nM and less than 250 nM, respectively.
As for `CCN(CCN(C)C)C(=O)CNCc1cc(C2OCC3(CC3)CN2C(=O)C(F)(F)F)ccn1` (centres unmarked) [Compound 91, N-[2--(dimethylamino)-ethyl]-N-ethyl-2-[({4-[7-(trifluoroacetyl)-5-oxa-7-azaspiro[2.5]-octan-6-yl]pyridin-2-yl}methyl)amino]-acetamide], the IC50 in test [2] and in test [3] was less than 250 nM throughout. The compound also returned a concentration for a half-maximal effect (EC50) in test [4] of less than 250 nM.
Turning to `CN(C)C(=O)CNCc1cc(CNCC#N)ccn1` [Compound 13, 2-{[(4-{[(cyanomethyl)amino]-methyl}pyridin-2-yl)methyl]amino}-N,N-dimethylacetamide], the IC50 in test [1] was greater than 2500 nM; in test [2], 250 to 2500 nM; in test [3], 250 to 2500 nM.
Take `N#CCNCc1ccnc(CNCCCCN(Cc2ccccc2)C2CC2)c1` [Compound 23, 2-[({2-[({4-[benzyl(cyclopropyl)-amino]butyl}amino)-methyl]pyridin-4-yl}methyl)amino]-acetonitrile]: the IC50 was greater than 2500 nM in test [1], 250 to 2500 nM in test [2] and less than 250 nM in test [3].
On to `CN(C)C(=O)CNCc1cc(/C=N\C2CC2)ccn1` [Compound 33], for which the IC50 was greater than 2500 nM in test [1], less than 250 nM in test [2] and 250 to 2500 nM in test [3].
With `CCN(CC(C)(C)N(C)C)C(=O)CNCc1cc(C=O)ccn1` [Compound 118, N-[2-(dimethylamino)-2-methylpropyl]-N-ethyl-2-{[(4-formylpyridin-2-yl)methyl]amino}-acetamide], the IC50 in test [2] and in test [3] was less than 250 nM throughout. Also, in test [4], the EC50 is less than 250 nM.
With `CCN(CC)CCCCNCc1cc(CN)ccn1` [Compound 5, [2-({[4-(diethylamino)butyl]-amino}methyl)pyridin-4-yl]methanamine], the IC50 in test [1] and in test [2] was greater than 2500 nM throughout. Also, the EC50 in test [4] was less than 250 nM.
On to `CCN(CCN(C)C)C(=O)CNCc1cc(/C=N/CCO)ccn1` [Compound 66], for which the figures for the IC50 in test [1] and in test [2] were greater than 2500 nM and less than 250 nM, respectively. Also, the concentration for a half-maximal effect (EC50) in test [4] was less than 250 nM.

(Values after patent US9650339B2, “Inhibitors of histone demethylases” (Gilead Sciences, Inc., priority 2013, dated 2017).)
